Reference: patent US5731285A, “Tachiquinine antagonist tricyclic compounds, preparation of same and pharmaceutical compositions containing such compounds” (A. Menatini Industrie Farmaceutiche, priority 1992, dated 1998)
Positions of bridges follow the written chain, without caps; N, C: chain ends. Non-standard residues stand in square brackets, D forms with d. Residues, ends and D or L forms follow the SMILES beside them. Dap = NC[C@H](N)C(=O)O

Biological target: T1, neurokinin A receptor (receptor NK-2) (Oryctolagus cuniculus, UniProt P79218)
T1 construct: The said preparation consisted of isolated rabbit pulmonary artery; from tissue; host or cells: isolated rabbit pulmonary artery
T1 sequence (P79218 1-384): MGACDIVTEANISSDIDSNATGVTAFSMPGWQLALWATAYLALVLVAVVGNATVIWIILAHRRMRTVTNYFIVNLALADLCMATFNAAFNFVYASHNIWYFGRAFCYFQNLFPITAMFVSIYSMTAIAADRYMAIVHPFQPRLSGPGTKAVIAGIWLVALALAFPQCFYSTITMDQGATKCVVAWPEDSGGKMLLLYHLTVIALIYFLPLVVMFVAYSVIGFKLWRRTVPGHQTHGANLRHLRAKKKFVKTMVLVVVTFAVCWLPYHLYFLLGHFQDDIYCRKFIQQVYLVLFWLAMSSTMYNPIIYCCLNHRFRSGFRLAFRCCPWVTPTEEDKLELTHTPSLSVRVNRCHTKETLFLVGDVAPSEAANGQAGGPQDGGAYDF
Assay: inhibition of NKA-induced contraction in isolated rabbit pulmonary artery
Assay type: cell-based
Details: compound, NKA 3 nM
Method: The capacity of the products described in the present invention to interact with the neurokinin A receptor as agonists or antagonists was assessed using a preparation characterized by the fact that the biological response produced by tachykinins and correlated peptides was exclusively determined by the neurokinin A receptor (receptor NK-2). The said preparation consisted of isolated rabbit pulmonary artery affected by a dose-dependentcontraction brought about by tachykinins (Rovero et al., Neuropeptides, 13, 263-270, 1989). The determination of the peptide activity in the test preparation was based on the use of an NKA concentration (3 nM) causing a response equal to 45% of max. response. The peptides considered herein were added to the preparation in growing concentrations. Their activity was assessed as inhibition of response to NKA.

CSCC[C@@H]1NC(=O)[C@H](CC(C)C)NC(=O)[C@@H]2CNC(=O)C[C@H](NC1=O)C(=O)N[C@@H](Cc1c[nH]c3ccccc13)C(=O)N[C@@H](Cc1ccccc1)C(=O)N2 [Compound 1] (cyclo(DWF[Dap]LM); lactam 1-4)
inhibition of response to neurokinins A: 100%
